The values below come from US20260347399A1, “BRAIN PENETRATING PEPTIDES AND METHODS OF USE” (priority 2022, published 2026).

One data set has as its system Neuro2A. Briefly: In vitro phage binding to cells. The class given is cell-based, mouse. The settings on record: 4 °C, 1 h. As to the method:
(§1) To assess the binding of Cerepep phage, the cells were cultured in 24-well plates on polylysine coated glass coverslips until 80-90% confluency. The cells were incubated with Cerepep or control insertless peptide-phage at a final concentration of 5×10^7 pfu in 1 ml of DMEM+BSA (1%) at 4 °C for 1 h on a rocking platform. The wells were washed 4 times with 1 ml of DMEM+BSA (1%), the cells were lysed in 1 ml LB+NP40 and the amount of phage bound to the cells was determined by titering.
(§2) Binding of SRRVISRAKLAAAL (SEQ ID NO:9) phage to a panel of different cell lines was studied in vitro.

The next data set concerns WT GBM. Briefly: In vitro phage binding to cells. It is filed as cell-based, mouse. As to conditions: 4 °C, 1 h. As to the method:
as §1, §2

A further data set deals with T1, LRP-1 cluster III (Homo sapiens, UniProt Q07954).
T1 construct: detected by anti-human antibody
T1 sequence (Q07954 2522-2941 limits assumed): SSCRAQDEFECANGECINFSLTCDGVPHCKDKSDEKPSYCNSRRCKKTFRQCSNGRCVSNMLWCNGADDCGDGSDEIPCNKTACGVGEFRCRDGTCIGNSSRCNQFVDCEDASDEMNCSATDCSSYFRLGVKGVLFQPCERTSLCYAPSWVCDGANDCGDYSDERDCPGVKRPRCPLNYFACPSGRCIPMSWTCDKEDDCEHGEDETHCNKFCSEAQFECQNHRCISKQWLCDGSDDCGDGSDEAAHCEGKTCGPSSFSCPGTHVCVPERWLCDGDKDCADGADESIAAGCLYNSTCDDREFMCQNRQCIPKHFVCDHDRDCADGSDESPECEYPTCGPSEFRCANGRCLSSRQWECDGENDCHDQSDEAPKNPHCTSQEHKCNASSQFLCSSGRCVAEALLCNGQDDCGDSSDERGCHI
Briefly: Bead binding assay (FACS). As to conditions: 10 nM LRP-1 cluster III, biotinylated peptide on beads. As to the method:
(§3) Briefly, 50 μl of Myone Dynabeads were washed multiple times and incubated with 100 μl of 2 mM biotinylated peptide at room temperature for 2h. Beads were washed twice with PBS, 0.01% Tween 20-DPBS, and 0.01% PBS-BSA. The beads were then incubated overnight with 10 nM LRP-1 cluster II, or LRP-1 cluster III, and Alexa Fluor 647 anti-human LRP-1 antibody (1:200) in PBS with 0.1% BSA (FIGS. 19A-19B).
(§4) The beads were washed several times and analyzed by FACS. Samples are indicated as follows: • Negative control (−ve control): beads incubated with biotin (non-peptide), LRP-1 cluster III protein, and Alexa Fluor 647 anti-human antibody; • Positive control for the cluster II expts: beads incubated with biotinylated-Angiopep2 peptide, LRP-1 cluster II protein and Alexa Fluor 647 anti-human LRP-1 antibody (see FIG. 19A); and • Positive control for cluster III expts: beads incubated with biotinylated-RPAR peptide, Neuropilin-1 b1b2 protein, (1:200) anti-neuropilin-1 antibody, (1:200) and Alexa Fluor 647 anti-rabbit antibody (see FIG. 19B).
(§5) 10,000 events per condition were analyzed. Experient was performed in three replicates per condition and t-test compared scramble sequence (SARVISRAKLARAL (SEQ ID NO:70)) with Cerepep.

The target of the next data set is T2, LRP-1 cluster II (Homo sapiens, UniProt Q07954).
T2 construct: detected by anti-human LRP-1 antibody
T2 sequence (Q07954 786-1165 limits assumed): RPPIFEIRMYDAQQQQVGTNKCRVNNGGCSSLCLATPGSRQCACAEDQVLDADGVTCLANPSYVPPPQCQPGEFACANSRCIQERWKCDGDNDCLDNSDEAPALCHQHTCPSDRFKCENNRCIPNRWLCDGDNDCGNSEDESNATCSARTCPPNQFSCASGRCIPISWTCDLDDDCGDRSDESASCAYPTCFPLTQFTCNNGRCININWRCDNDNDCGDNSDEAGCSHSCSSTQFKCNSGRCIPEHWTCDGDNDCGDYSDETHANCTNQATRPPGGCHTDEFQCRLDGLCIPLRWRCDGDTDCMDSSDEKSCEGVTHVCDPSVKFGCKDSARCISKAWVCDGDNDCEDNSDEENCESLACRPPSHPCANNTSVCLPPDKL
The experiment in a line: Bead binding assay (FACS). As to conditions: 10 nM LRP-1 cluster II, biotinylated peptide on beads. As to the method:
as §3, §4, §5

The next data set has as its system rat brain. The experiment in a line: Peptide-phage biodistribution after i.v. injection, rats. It is filed as in vivo. The settings on record: 1 h. As to the method: For titering-based biodistribution studies, nucleotide sequences coding for peptides of interest were cloned into T7 phage genomic DNA to be expressed on the phage surface as C-terminal fusions to capsid protein. The cloning was performed using complementary oligonucleotides, the phage clones were amplified, and purified as described in (Põšnograjeva, et al., 2022). 5×10^9 pfu of peptide-phage clone was injected i.v. into male Balb/C mice or 5×10^10 pfu of phage was injected into female Sprague-Dawley rats (n=3). 60 min later, the animals were anesthetized and perfused with PBS. The tissues were collected, homogenized, and the amount of phage in tissue lysates was determined by titering using E. coli strain BLT5615.
The brain selectivity of SRRVISRAKLAAAL (SEQ ID NO:9) phage following a systemic administration was studied in mice and rats by determining the titer of […] (SEQ ID NO:9) and control phage in multiple control tissues.

A further data set relates to brain parenchyma. The experiment in a line: Peptide-phage homing in vivo vs ex vivo. Also noted: species or system mouse.
In a further data set the test system is mouse CNS. Briefly: CVGTNCY peptide-phage biodistribution. The class given is in vivo. As to the method:
CVGTNCY (SEQ ID NO:2) peptide-phage or control phage were injected iv into mice, after one hour circulation animals were perfused with 20 ml PBS, organs were collected, weighed, and dropped to 1% NP40-LB solution. Organs were homogenized and titer of each tissue was determined. FAM-labeled peptides (2 mM of peptide in PBS) were injected intravenously and 3 hours later the animals were perfused with 20 mL of PBS. The organs were excised, snap-frozen in the vapor of liquid nitrogen, and stored at −80 °C. For confocal microscopy, the tissues were sectioned at 15 μm and stained with antibodies and DAPI.
To describe the utility of CVGTNCY (SEQ ID NO:2) peptide as a systemic CNS homing peptide, the biodistribution of CVGTNCY (SEQ ID NO:2) peptide-phage as well as peptide-functionalized AgNPs were analyzed in rodents. […] No significant difference between CVGTNCY (SEQ ID NO:2) and G7 titers was determined in the rest of the analyzed organs/tissues).

Ends that are not written are not given here.

With “SRRVISRAKLAAAL [Cerepep, SRRVISRAKLAAAL]”, the “binding of peptide-phage, fold over insertless phage” value with Neuro2A and in the data set on WT GBM was “at least 50 fold” each time. Moreover, on LRP-1 cluster III, the “interaction with LRP-1 cluster III” value is “interacts with LRP-1 cluster II and cluster III”. Further, on LRP-1 cluster II, the “interaction with LRP-1 cluster II” value is recorded as “interacts with LRP-1 cluster II”. The “brain selectivity (titer in brain vs control tissues)” value in the data set on rat brain is “highest accumulation in the brain and low accumulation in all other tested tissues”.

As to CVGTNCY, the “brain homing in vivo after iv injection” value in the data set on brain parenchyma is “homes to the brain parenchyma”. The homing preference result in the data set with mouse CNS (mouse, in vivo) is “homes preferentially to the eyes/brain/CNS”. For the same substance, in the data set on mouse CNS (peptide-phage i.v., 1 h, mice), the “homing to other organs” value is given as “did not show a trend of homing”; the “level in CNS and eyes compared to control G7 phage” value was “High level”; the “regional homing in CNS” value is “tendency to home more to the hippocampus, frontal cortex and cerebellum”.
